Test results published in US12685735B2 (Foghorn Therapeutics Inc., priority 2020, dated 2026).
Where two headings read alike, the source gives them in different places.

Key:
BRM = BRM (Homo sapiens, UniProt P51531); experiment: ATPase catalytic activity assay of BRM (ADP-Glo); assay type: biochemical; details: for IC50: read-out: BRM IC50 (μM)*
How it was run: (§1)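 Luminescence from ADP formed by BRM or BRG-1 ATPase was detected after a two-step ADP-Glo workup at room temperature. The first step, removing unconsumed ATP, took 40 min; the second, converting ADP to ATP for luciferase, took 60 min.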

BRG-1 = BRG-1 (Homo sapiens, UniProt P51532); experiment: ATPase catalytic activity assay of BRG-1 (ADP-Glo); assay type: biochemical; details: ATPase catalytic activity, ADP-Glo; for IC50: read-out: BRG1 IC50 (μM)*; for Emax: read-out: BRG1 Max % Inhibition
How it was run: as §1

Chain of BRG-1 (P51532 whole entry): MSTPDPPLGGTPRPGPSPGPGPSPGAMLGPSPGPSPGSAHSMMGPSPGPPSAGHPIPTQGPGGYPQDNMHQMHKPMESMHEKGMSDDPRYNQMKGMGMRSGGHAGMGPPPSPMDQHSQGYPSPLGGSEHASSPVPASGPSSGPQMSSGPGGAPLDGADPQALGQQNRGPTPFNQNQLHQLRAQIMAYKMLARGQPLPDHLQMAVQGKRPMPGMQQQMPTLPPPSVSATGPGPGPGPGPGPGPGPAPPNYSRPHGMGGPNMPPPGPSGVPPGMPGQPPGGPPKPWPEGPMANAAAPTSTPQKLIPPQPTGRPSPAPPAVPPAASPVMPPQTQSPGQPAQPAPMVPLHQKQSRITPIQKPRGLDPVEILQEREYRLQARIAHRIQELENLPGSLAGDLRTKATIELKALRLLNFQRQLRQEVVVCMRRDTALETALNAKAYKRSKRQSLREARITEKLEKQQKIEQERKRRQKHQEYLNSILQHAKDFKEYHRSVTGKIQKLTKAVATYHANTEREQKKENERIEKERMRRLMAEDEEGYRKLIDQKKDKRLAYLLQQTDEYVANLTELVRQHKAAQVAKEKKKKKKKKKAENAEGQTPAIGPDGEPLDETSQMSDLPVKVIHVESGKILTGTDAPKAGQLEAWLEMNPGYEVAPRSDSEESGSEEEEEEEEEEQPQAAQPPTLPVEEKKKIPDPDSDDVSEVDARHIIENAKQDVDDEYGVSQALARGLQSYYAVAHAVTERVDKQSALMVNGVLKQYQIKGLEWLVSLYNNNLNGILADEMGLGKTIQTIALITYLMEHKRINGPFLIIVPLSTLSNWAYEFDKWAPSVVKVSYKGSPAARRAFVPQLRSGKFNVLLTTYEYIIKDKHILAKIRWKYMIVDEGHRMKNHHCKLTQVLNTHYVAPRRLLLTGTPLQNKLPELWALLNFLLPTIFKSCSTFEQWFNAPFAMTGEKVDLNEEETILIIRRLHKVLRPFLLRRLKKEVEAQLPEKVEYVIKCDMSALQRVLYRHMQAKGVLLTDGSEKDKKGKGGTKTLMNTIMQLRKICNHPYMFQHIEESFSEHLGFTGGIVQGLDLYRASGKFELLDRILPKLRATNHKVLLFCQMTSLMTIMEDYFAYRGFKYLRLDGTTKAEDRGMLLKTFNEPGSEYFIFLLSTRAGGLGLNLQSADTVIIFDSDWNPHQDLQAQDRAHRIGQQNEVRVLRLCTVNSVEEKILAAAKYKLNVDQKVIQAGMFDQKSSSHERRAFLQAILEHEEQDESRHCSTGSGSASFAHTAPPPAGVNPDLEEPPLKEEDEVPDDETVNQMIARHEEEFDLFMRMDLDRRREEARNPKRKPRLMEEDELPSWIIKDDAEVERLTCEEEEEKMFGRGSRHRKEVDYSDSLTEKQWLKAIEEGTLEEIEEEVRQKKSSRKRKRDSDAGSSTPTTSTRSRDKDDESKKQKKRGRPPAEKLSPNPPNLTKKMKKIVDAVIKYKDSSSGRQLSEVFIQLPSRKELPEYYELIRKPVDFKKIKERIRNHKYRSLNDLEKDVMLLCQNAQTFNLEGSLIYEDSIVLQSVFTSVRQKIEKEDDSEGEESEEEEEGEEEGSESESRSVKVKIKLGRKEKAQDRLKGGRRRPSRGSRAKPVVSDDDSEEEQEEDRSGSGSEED
Chain of BRM (P51531 whole entry): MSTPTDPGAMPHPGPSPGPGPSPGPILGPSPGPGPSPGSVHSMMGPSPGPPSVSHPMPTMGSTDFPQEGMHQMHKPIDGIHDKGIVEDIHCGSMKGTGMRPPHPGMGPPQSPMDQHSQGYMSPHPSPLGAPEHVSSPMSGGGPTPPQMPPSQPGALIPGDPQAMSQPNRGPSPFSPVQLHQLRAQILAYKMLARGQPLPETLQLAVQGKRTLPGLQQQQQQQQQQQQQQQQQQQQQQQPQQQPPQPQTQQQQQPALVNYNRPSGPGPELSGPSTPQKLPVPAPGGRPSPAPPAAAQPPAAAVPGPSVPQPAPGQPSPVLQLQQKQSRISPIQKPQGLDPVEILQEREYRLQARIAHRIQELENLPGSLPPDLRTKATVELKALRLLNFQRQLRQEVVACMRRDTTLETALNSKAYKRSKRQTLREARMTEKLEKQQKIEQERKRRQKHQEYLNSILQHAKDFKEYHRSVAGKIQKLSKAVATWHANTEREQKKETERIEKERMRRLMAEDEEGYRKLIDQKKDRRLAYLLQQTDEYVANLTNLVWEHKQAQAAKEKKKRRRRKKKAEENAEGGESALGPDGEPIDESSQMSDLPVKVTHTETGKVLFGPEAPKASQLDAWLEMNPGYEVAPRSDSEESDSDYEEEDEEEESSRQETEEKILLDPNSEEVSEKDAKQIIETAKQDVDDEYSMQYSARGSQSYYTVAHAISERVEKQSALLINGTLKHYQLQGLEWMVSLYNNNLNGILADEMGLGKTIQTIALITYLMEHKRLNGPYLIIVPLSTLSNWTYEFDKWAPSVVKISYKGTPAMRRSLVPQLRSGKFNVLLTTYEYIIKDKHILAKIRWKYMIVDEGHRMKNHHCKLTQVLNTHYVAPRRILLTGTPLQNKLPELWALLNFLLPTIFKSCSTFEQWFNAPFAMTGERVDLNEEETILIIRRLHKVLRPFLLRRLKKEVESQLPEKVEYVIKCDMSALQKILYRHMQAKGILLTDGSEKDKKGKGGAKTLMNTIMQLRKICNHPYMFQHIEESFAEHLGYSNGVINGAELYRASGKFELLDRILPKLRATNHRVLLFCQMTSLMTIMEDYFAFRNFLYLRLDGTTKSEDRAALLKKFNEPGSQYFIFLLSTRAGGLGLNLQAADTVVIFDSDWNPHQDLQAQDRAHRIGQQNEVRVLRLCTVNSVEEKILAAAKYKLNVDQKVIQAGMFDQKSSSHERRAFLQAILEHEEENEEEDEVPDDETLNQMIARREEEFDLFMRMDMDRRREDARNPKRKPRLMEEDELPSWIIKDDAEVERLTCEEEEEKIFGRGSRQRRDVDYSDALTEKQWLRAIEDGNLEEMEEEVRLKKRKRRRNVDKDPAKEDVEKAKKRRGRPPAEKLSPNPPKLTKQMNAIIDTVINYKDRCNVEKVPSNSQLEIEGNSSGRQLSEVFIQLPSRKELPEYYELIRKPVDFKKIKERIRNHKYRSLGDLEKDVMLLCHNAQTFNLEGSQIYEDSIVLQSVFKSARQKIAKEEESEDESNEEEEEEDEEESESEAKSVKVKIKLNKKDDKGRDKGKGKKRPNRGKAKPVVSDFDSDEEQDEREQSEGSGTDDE

Compound	BRM Max % Inhibition (BRM) [%]	IC50 (BRM) [µM]	IC50 (BRG-1) [µM]	Emax (BRG-1) [%]	BRM Max % Inhibition (BRM; 30 nM BRM, 400 μM ATP) [%]	IC50 (BRM; 30 nM BRM, 400 μM ATP) [µM]	IC50 (BRG-1; 30 nM BRG-1, 400 μM ATP) [µM]	Emax (BRG-1; 30 nM BRG-1, 400 μM ATP) [%]
C[C@@H]1CN(c2cccc(-c3csc(NC(=O)CNC(=O)c4cccc([C@H]5COC[C@@H]5O)c4)n3)c2)C[C@H](C)O1 [Compound 156, N-(2-((4-(3-((cis)-2,6-dimethylmorpholino)phenyl)thiazol-2-yl)amino)-2-oxoethyl)-3-((3S,4R)-4-hydroxytetrahydrofuran-3-yl)benzamide]	>80	0.1 to 1	> 5	> 30	–	–	–	–
Cc1nccc(-c2cccc(-c3csc(NC(=O)CNC(=O)c4ccc5c(c4)[C@](C)(CO)CC5)n3)n2)n1 [Compound 215]	>95	< 0.1	0.1 to 1	> 80	–	–	–	–
Cc1cc(-c2cccc(-c3csc(NC(=O)CNC(=O)c4ccc5c(c4)[C@@](C)(C#N)CC5)n3)n2)ncn1 [Compound 266, (3S)-3-cyano-3-methyl-N-[2-[[4-[6-(6-methylpyrimidin-4-yl)-2-pyridyl]thiazol-2-yl]amino]-2-oxo-ethyl]indane-5-carboxamide]	>60	1 to 5	> 5	> 30	–	–	–	–
CN(C)Cc1cc(-c2cccc(-c3csc(NC(=O)CNC(=O)c4cccc(C(C)(C)CN)c4)n3)c2)ccn1 [Compound 61, 3-(1-amino-2-methylpropan-2-yl)-N-(2-((4-(3-(2-((dimethylamino)methyl)pyridin-4-yl)phenyl)thiazol-2-yl)amino)-2-oxoethyl)benzamide]	>90	0.1 to 1	1 to 5	> 60	–	–	–	–
C[C@@]1(C#N)COCc2ccc(C(=O)NCC(=O)Nc3nc(-c4cccc([C@@H]5CC5(F)F)c4)cs3)cc21 [Compound 388, (R)-4-cyano-N-(2-((4-(3-((S)-2,2-difluorocyclopropyl)phenyl)thiazol-2-yl)amino)-2-oxoethyl)-4-methylisochromane-6-carboxamide]	>95	< 0.1	< 0.1	> 95	–	–	–	–
CC1CC(c2cccc(-c3csc(NC(=O)CNC(=O)c4ccc5c(c4)[C@](C)(C#N)COC5)n3)c2)O1 (stereo partly drawn) [Compound 340, (R)-4-cyano-4-methyl-N-(2-((4-(3-(4-methyloxetan-2-yl)phenyl)thiazol-2-yl)amino)-2-oxoethyl)isochromane-6-carboxamide]	>95	< 0.1	0.1 to 1	> 95	–	–	–	–
COc1cc(-c2cccc(-c3csc(NC(=O)CNC(=O)c4cccc(S(=O)(=O)C(C)C)c4)n3)c2)ccn1 [Compound 29, 3-(isopropylsulfonyl)-N-(2-((4-(3-(2-methoxypyridin-4-yl)phenyl)thiazol-2-yl)amino)-2-oxoethyl)benzamide]	>90	0.1 to 1	0.1 to 1	–	–	–	–	–
C[C@@H]1CN(c2cccc(-c3csc(NC(=O)CNC(=O)c4cccc(C5(F)COCC5O)c4)n3)n2)C[C@H](C)O1 (stereo partly drawn) [Compound 304, N-(2-((4-(6-((cis)-2,6-dimethylmorpholino)pyridin-2-yl)thiazol-2-yl)amino)-2-oxoethyl)-3-(3-fluoro-4-hydroxytetrahydrofuran-3-yl)benzamide]	>95	0.1 to 1	1 to 5	> 95	–	–	–	–
C[C@@]1(C#N)COCc2ccc(C(=O)NCC(=O)Nc3nc(-c4cc(F)cc(C5CCO5)c4)cs3)cc21 (stereo partly drawn) [Compound 316, (R)-4-cyano-N-(2-((4-(3-fluoro-5-(oxetan-2-yl)phenyl)thiazol-2-yl)amino)-2-oxoethyl)-4-methylisochromane-6-carboxamide]	>95	< 0.1	< 0.1	> 95	–	–	–	–
C[C@@H]1CN(c2cccc(-c3csc(NC(=O)CNC(=O)c4cccc([C@H]5COC[C@H]5O)c4)n3)n2)C[C@H](C)O1 (stereo in doubt) [Compound 425, N-(2-((4-(6-((cis)-2,6-dimethylmorpholino)pyridin-2-yl)thiazol-2-yl)amino)-2-oxoethyl)-3-((trans)-4-hydroxytetrahydrofuran-3-yl)benzamide]	–	–	–	–	>85	0.1 to 1	> 5	> 85
C[C@@H]1CN(c2cccc(-c3csc(NC(=O)CNC(=O)c4ccc5c(c4)C4(CCO5)COC4)n3)n2)C[C@H](C)O1 [Compound 381, N-(2-((4-(6-((cis)-2,6-dimethylmorpholino)pyridin-2-yl)thiazol-2-yl)amino)-2-oxoethyl)spiro[chromane-4,3′-oxetane]-6-carboxamide]	>80	0.1 to 1	> 5	> 80	–	–	–	–
C[C@@H]1CN(c2cccc(-c3csc(NC(=O)CNC(=O)c4ccc5c(c4)C(C#N)(CO)COC5)n3)c2)C[C@H](C)O1 (stereo partly drawn) [Compound 374, 4-cyano-N-(2-((4-(3-((cis)-2,6-dimethylmorpholino)phenyl)thiazol-2-yl)amino)-2-oxoethyl)-4-(hydroxymethyl)isochromane-6-carboxamide]	>95	< 0.1	0.1 to 1	> 95	–	–	–	–
C[C@@H]1CN(c2cccc(-c3csc(NC(=O)CNC(=O)c4cccc(C5(C(F)F)COC5)c4)n3)c2)C[C@H](C)O1 [Compound 419, 3-(3-(difluoromethyl)oxetan-3-yl)-N-(2-((4-(3-((cis)-2,6-dimethylmorpholino)phenyl)thiazol-2-yl)amino)-2-oxoethyl)benzamide]	–	–	–	–	>95	< 0.1	0.1 to 1	> 95
COc1cccc(-c2csc(NC(=O)CNC(=O)c3ccc4c(c3)[C@](C)(C#N)COC4)n2)c1F [Compound 402, (R)-4-cyano-N-(2-((4-(2-fluoro-3-methoxyphenyl)thiazol-2-yl)amino)-2-oxoethyl)-4-methylisochromane-6-carboxamide]	>95	< 0.1	< 0.1	> 95	–	–	–	–
CC(C)S(=O)(=O)c1cccc(C(=O)NCC(=O)Nc2nc(-c3cccc(N4CCOCC4)c3)cs2)c1 [Compound 126, 3-isopropylsulfonyl-N-[2-[[4-(3-morpholinophenyl)thiazol-2-yl]amino]-2-oxoethyl]benzamide]	>80	0.1 to 1	1 to 5	> 60	–	–	–	–
C[C@@]1(C#N)COCc2ccc(C(=O)NCC(=O)Nc3nc(-c4cccc([C@@]56CCOC[C@@H]5C6)c4)cs3)cc21 [Compound 294, (R)-N-(2-((4-(3-((1R,6S)-3-oxabicyclo[4.1.0]heptan-6-yl)phenyl)thiazol-2-yl)amino)-2-oxoethyl)-4-cyano-4-methylisochromane-6-carboxamide]	>95	< 0.1	0.1 to 1	> 95	–	–	–	–
C[C@@]1(F)COCc2ccc(C(=O)NCC(=O)Nc3nc(-c4cccc(N5CCC5)c4)cs3)cc21 [Compound 332, (S)-N-(2-((4-(3-(azetidin-1-yl)phenyl)thiazol-2-yl)amino)-2-oxoethyl)-4-fluoro-4-methylisochromane-6-carboxamide]	>95	< 0.1	< 0.1	> 95	–	–	–	–
C[C@@H]1CN(c2cccc(-c3csc(NC(=O)CNC(=O)c4ccc5c(c4)C(C)(C#N)CNC5)n3)c2)C[C@H](C)O1 (stereo in doubt) [Compound 287, (S)-4-cyano-N-(2-((4-(3-((cis)-2,6-dimethylmorpholino)phenyl)thiazol-2-yl)amino)-2-oxoethyl)-4-methyl-1,2,3,4-tetrahydroisoquinoline-6-carboxamide]	>95	< 0.1	< 0.1	> 95	–	–	–	–
C[C@@H]1CN(c2cccc(-c3csc(NC(=O)CNC(=O)c4ccc5c(c4)C(C)(C#N)OCC5)n3)n2)C[C@H](C)O1 (stereo partly drawn) [Compound 384, 1-cyano-N-(2-((4-(6-((cis)-2,6-dimethylmorpholino)pyridin-2-yl)thiazol-2-yl)amino)-2-oxoethyl)-1-methylisochromane-7-carboxamide]	>90	0.1 to 1	1 to 5	> 90	–	–	–	–
Cc1nccc(-c2cccc(-c3csc(NC(=O)CNC(=O)c4ccc5c(c4)[C@@](C)(CO)CC5)n3)n2)n1 [Compound 214]	>90	0.1 to 1	0.1 to 1	> 80	–	–	–	–
Cc1cc(-c2cccc(-c3csc(NC(=O)CNC(=O)c4ccc5c(c4)[C@](C)(CO)CCC5)n3)n2)ncn1 [Compound 208, (R)-8-(hydroxymethyl)-8-methyl-N-(2-((4-(6-(6-methylpyrimidin-4-yl)pyridin-2-yl)thiazol-2-yl)amino)-2-oxoethyl)-5,6,7,8-tetrahydronaphthalene-2-carboxamide]	>95	0.1 to 1	1 to 5	> 60	–	–	–	–
CC1(C#N)CCOc2ccc(C(=O)NCC(=O)Nc3nc(-c4cccc([C@@H]5CC5(F)F)n4)cs3)cc21 (stereo in doubt) [Compound 380, (S)-4-cyano-N-(2-((4-(6-((S)-2,2-difluorocyclopropyl)pyridin-2-yl)thiazol-2-yl)amino)-2-oxoethyl)-4-methylchromane-6-carboxamide]	>85	0.1 to 1	1 to 5	> 85	–	–	–	–
C[C@@H]1CN(c2cccc(-c3csc(NC(=O)CNC(=O)c4cc(C(C)(C)C)ncc4F)n3)c2)C[C@H](C)O1 [Compound 383, 2-(tert-butyl)-N-(2-((4-(3-((cis)-2,6-dimethylmorpholino)phenyl)thiazol-2-yl)amino)-2-oxoethyl)-5-fluoroisonicotinamide]	>85	0.1 to 1	> 5	> 85	–	–	–	–
